These results are taken from paper PMC8051587 (ACS chemical biology, 2020).

For one assay, the target named is M2 WT. Particulars: read-out: apparent Ki; block of M2 WT; cited from earlier work.
In assay [1] the target is T1, full-length A/Udorn/72 M2 WT (Influenza A virus, UniProt P0DOF5). Conditions: 100 μM, mean ± SEM at 2 min of drug perfusion; ref [3]; cited from earlier work.
For assay [2], the target named is T1, full-length A/Udorn/72 M2 WT.
In another assay the test system is A/WSN/33. Particulars: plaque reduction assay; cited from earlier work. Background: Plaque reduction counts the foci of infection that form in a cell layer.

“And” between values parts separate entries of the source, which are not always exact repeats. Identical values can stand only once. Some results are limits rather than exact numbers.

T1 sequence (P0DOF5 whole entry, the tested form may be a part): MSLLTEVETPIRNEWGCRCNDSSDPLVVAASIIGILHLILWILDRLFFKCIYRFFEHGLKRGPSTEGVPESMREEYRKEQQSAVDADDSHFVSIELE

In the case of `NC12CC3CC(CC(C3)C1)C2` [Amantadine, amantadine], the Ki on M2 WT is 0.3 µM.
One may read the Kd as the concentration at which binding is half-saturated. What is called koff is a measure of how fast the partners let go of each other. A lower koff goes with a long-lived complex. By EC50 is commonly meant the concentration giving half of the maximal effect. In the case of `c1csc(-c2cc(CNC34CC5CC(CC(C5)C3)C4)on2)c1` [Compound 6], the “Percent Block (%)” value in assay [1] was 11% and 11 ± 1^g %. Besides, in assay [2] (calculated from the ratio koff/kon), the Kd was more than 100 µM. In assay [2] (inferred from extent of block and perfusion-limited block rate), the koff was more than 1 s⁻¹. Besides, in the assay on A/WSN/33, the EC50 is approximately 0.1 µM.
